Entries after “also recorded” stand apart in the source; their conditions may differ.
Tests used:
[1] = test system: airway epithelial cells; assay: In vitro clonogenic potential and colony-forming ability with Rho kinase inhibitor HA1077; assay type: cell-based; details: FIG. 11
Source text: FIG. 11. […] P53 and ROCK regulate epithelial colony-forming ability and “stemness”. Tp53 (p53) is a tumor suppressor that is one of the most commonly mutated genes in cancer. In addition to its classical functions of regulating cell fate following cellular stress, p53 regulates migration, autophagy, metabolism, and tumor microenvironment signaling. p53 regulates self-renewal and terminal differentiation of both neural and mammary stem cells in vitro, and of hematopoietic and kidney stem/progenitor cells in vivo. In the Inventors' previous work the Inventors have shown that loss of p53 function promotes stem cell renewal in vivo and leads to a dramatic increase in colony-forming epithelial progenitor cells in vitro. The impact of p53 loss-of-function on airway epithelial in vitro colony-forming ability can be phenocopied by pharmacologic inhibition of Rho kinase (ROCK). Experiments proposed in the Inventors' application will use transient pharmacologic modulation of ROCK and p53 as tools to enhance survival and “sternness” of transplanted epithelial cells and overcome the need for co-transplanted structural lung cells for their efficient engraftment.

[2] = test system: freshly isolated murine proximal total epithelial cells; assay: Organoid culture of murine tracheal progenitor (basal) cells; assay type: cell-based
Protocol: FIG. 18. Effect of ROCK and P53 inhibition on murine tracheal progenitor (basal) cells. Addition of both ROCKi (in presence of SB431542) increases the colony forming efficiency of freshly isolated murine proximal total epithelial cells (isolated from the murine trachea).
(§1) Distal progenitor cells were cultured as 3D organoids for 14 days in presence of Pifithrin-alpha, ROCKi and SB431542 followed by culture for 7 days in media without all three inhibitors. […] Addition of ROCKi (in presence of SB431542) increases the colony forming efficiency of freshly isolated club cells (regional stem cells which maintain certain cell types in the bronchiolar epithelium) whereas addition of Pifithrin alpha (in presence of SB431542) increases the size of Scgb1a1-derived organoids. Addition of both ROCKi (in presence of SB431542) increases the colony forming efficiency of freshly isolated murine proximal total epithelial cells (isolated from the murine trachea).

[3] = test system: freshly isolated club cells; assay: Organoid culture of lineage labelled murine club cells; assay type: cell-based; details: GFP+ club cells, in presence of SB431542
Source text: FIG. 17. Effect of ROCK and P53 inhibition on lineage labelled murine club cells. GFP^+ club cells were isolated from tamoxifen treated Scgb1a1-CreER/ROSARG mice. Addition of ROCKi (in presence of SB431542) increases the colony forming efficiency of freshly isolated club cells (regional stem cells which maintain certain cell types in the bronchiolar epithelium) whereas addition of Pifithrin alpha (in presence of SB431542) increases the size of Scgb1a1-derived organoids.
as §1

[4] = test system: distal progenitor cells; assay: Differentiation potential of distal progenitors after 3D organoid culture with inhibitors; assay type: cell-based; details: 14 days with Pifithrin-alpha, ROCKi and SB431542, then 7 days without inhibitors, PDPN and SPC staining
Protocol: FIG. 16. […] Distal progenitor cells were cultured as 3D organoids for 14 days in presence of Pifithrin-alpha, ROCKi and SB431542 followed by culture for 7 days in media without all three inhibitors. […] DAPI (blue) is a nuclear stain.
as §1

[5] = test system: human bronchial epithelial stem cells; details: inhibition of ROCK1 and 2; cited from earlier work
[6] = test system: freshly isolated alveolar type II cells; assay: Organoid culture of lineage labelled murine alveolar type II cells; assay type: cell-based; details: GFP+ alveolar type II cells, in presence of SB431542
Source text: FIG. 15. Effect of ROCK and P53 inhibition on lineage labelled murine alveolar type II cells. GFP^+ alveolar type II cells were isolated from tamoxifen treated SPC-CreER/ROSARG mice. Addition of both ROCKi and Pifithrin alpha (in presence of SB431542) increases the colony forming efficiency of freshly isolated alveolar typeII cells (regional stem cells which maintain the epithelium of the air sacs in the lung). The effect is synergistic for their combined use, similar to that seen for total distal epithelial cells in the previous figures.
(§2) ROCKi increases the colony forming efficiency when murine distal total epithelial cells (isolated from the lung without trachea) are pre-cultured on collagen coated plates for 24 hrs prior after initial isolation. The effect on size is more pronounced when cells are precultured for 24 hrs on collagen coated plates after initial isolation. The drop in CFE in the Pifithrin alpha+ROCKi group is likely due space and nutrient availability constraints due to the large number of organoids per well. Addition of both ROCKi and Pifithrin alpha (in presence of SB431542) increases the colony forming efficiency of freshly isolated alveolar type II cells (regional stem cells which maintain the epithelium of the air sacs in the lung). The effect is synergistic for their combined use, similar to that seen for total distal epithelial cells in the previous figures.

[7] = test system: murine pre-cultured distal total epithelial cells; assay: 3D organoid culture of murine distal total epithelial cells pre-cultured 24 hrs on collagen coated plates; assay type: cell-based; details: pre-cultured on collagen coated plates for 24 hrs after isolation, +SB431542; dihydrochloride
Source text: FIG. 4. Effect of pre-culturing—Day 3. Pre-culturing cells on collagen coated plates for 24 hrs after initial isolation increases the rate of organoid formation, with organoids being visible as early as day 3 in culture.
FIG. 5. Effect of pre-culturing—Day 8. Addition of Pifithrin α causes an increase in organoids size, while addition of ROCKi causes an increase in the colony forming efficiency. This effect is more pronounced when cells are pre-cultured for 24 hrs on collagen coated plates after initial isolation.
FIG. 14. Effect of inhibitors on murine pre-cultured distal total epithelial cells in (+SB431542). Addition Pifithrin alpha increases organoid size while addition of ROCKi increases the colony forming efficiency when murine distal total epithelial cells (isolated from the lung without trachea) are pre-cultured on collagen coated plates for 24 hrs prior after initial isolation. The effect on size is more pronounced when cells are precultured for 24 hrs on collagen coated plates after initial isolation. The drop in CFE in the Pifithrin alpha+ROCKi group is likely due space and nutrient availability constraints due to the large number of organoids per well.
as §2

[8] = test system: freshly isolated murine distal total epithelial cells; assay: 3D organoid culture of freshly isolated murine distal total epithelial cells; assay type: cell-based; details: for % colony forming efficiency: freshly isolated murine lung epithelial cells, addition to the culture medium (FIG. 3)
Source text: (§3) FIG. 1. Experimental design. Preconditioning of donor cells, including addition of small molecules such as ROCK inhibitor, pifithrin α, or combined together, and generation of organoids.
FIG. 3. […] Addition of the TGF-β inhibitor, SB 431542 to the culture medium increases the % colony forming efficiency of freshly isolated murine lung epithelial cells. Addition of Pifithrin α causes an increase in organoids size, while addition of ROCKi causes an increase in the colony forming efficiency.
FIG. 13. Effect of p53 and ROCKi inhibition on murine freshly isolated distal total epithelial cells in (+SB431542). Addition of both ROCKi and Pifithrin alpha (in presence of SB431542) increases the colony forming efficiency of freshly isolated murine distal total epithelial cells (isolated from the lung without trachea). […] Pifithrin alpha also causes an increase in the size of the organoids (C). […] The drop in mean diameter of the Pifithrin alpha+ROCKi group is likely due to space constraints because of the large number of organoids per well.
Further described herein is a cell culture including a quantity of human stem cells, or stem cell derived cells in a cell culture media including at least one molecule including: a RHO-kinase (ROCK) inhibitor, SMAD inhibitor, and p53 inhibitor. In other embodiments, the RHO-kinase inhibitor is Y27632 and the p53 inhibitor is Pifithrin α. In other embodiments, the stem cells are adult stem cells. In other embodiments, the stem cell derived cells are lung epithelial cells. In various embodiments, the aforementioned inhibitors are at a concentration of 0.1-1 uM, 1-5 uM, 5-10 uM, 10-25 uM, 25-50 uM, or 50 uM or more. In various embodiments, the p53 inhibitor is Pifithrin-alpha. For example, this includes a media formulated as follows: 5 mL FBS, 500 uL ITS (100×), 50 uL Fungizone, 500 uL Pen/Strep (100×), DMEM/F12 up to 50 mL, 5 uL SB431542, Pifithrin-alpha 10 uM, ROCKi (Y-27632 dihydrochloride)—10 uM. Also described herein is a quantity of organoids including cells made by the aforementioned methods. In various embodiments, the organoids include proximal and/or distal cells. In various embodiments, the distal cells are alveolar type II progenitors and/or Scgb1a1 positive club progenitor cells.

[9] = test system: freshly isolated cells; assay: Freshly isolated cells cultured with small molecules at different time points (proliferation); assay type: cell-based; details: different time points (FIG. 2)
Source text: as §3
FIG. 2. Freshly isolated cells cultured with small molecules at different time points.

[10] = test system: Scgb1a1 immunoreactive cells; assay: Club cell ablation by gancyclovir in Scgb1a1-HSVtk transgenic mice; assay type: in vivo; details: 12.5 mg total delivered dose through miniosmotic pump, 7 days post-treatment
Protocol: FIG. 9. Orthotopic cell transplantation. Scgb1a1-HSVtk transgenic mice were exposed to gancyclovir delivered through miniosmotic pump and club cell ablation monitored by immunofluorescence. A dose of 12.5 mg gancyclovir (total delivered dose) led to >90% loss of Scgb1a1 immunoreactive cells 7 days post-treatment (red immunofluorescence in panel A). Total lung cells were isolated from ROSA-GFP mice and 1×10^6 cells transplanted into lungs of gancyclovir-treated mice that received i.t. chlodronate-containing liposomes for depletion of macrophages. Transplanted cells are shown in green in B and C, with cell type-specific markers shown by red immunofluorescence in C. Transplantation of 1×10^6 ROSA-mT lung cells (total cells following depletion of CD45+ fraction) into recipient lung tissue pre-conditioned by 6 Gy X-Rays led to efficient engraftment as shown by light sheet microscopy 2 weeks post transplant (D). The Inventors' initial efforts to develop a protocol for functional engraftment of transplanted epithelial stem cells involved sequential ablation of club cells through delivery of gancyclovir to Scgb1a1-HSVtk trangenic mice followed by delivery of liposome encapsulated chlodronate to deplete macrophages (FIG. 9A-C). […] Difficulties with this model were lack of translatability and poor survival of recipient mice. […]

O=S(=O)(c1cccc2cnccc12)N1CCCNCC1 [HA1077]
colony-forming ability [1]: without altering
in vitro clonogenic potential [1]: increases

C[C@@H](N)[C@H]1CC[C@H](C(=O)Nc2ccncc2)CC1.Cl.Cl [ROCKi, Y-27632 dihydrochloride]
colony forming efficiency ([2]; cells isolated from the murine trachea, in presence of SB431542): increases
survival of proximal and distal progenitors (inferred from colony forming ability) ([2]; comparison of proximal and distal progenitor cell types, dihydrochloride): increase survival of both proximal and distal progenitors; also recorded: increases survival
colony forming efficiency [3]: increases
differentiation potential ([4]; dihydrochloride): did not alter; also recorded: do not alter
survival and expansion of human bronchial epithelial stem cells [5]: promote survival and expansion
colony forming efficiency [6]: increases
size of the alveolar organoids [6]: does not increase
colony forming efficiency [7]: increase
colony forming efficiency ([8]; freshly isolated cells, in presence of SB431542 (FIG. 13)): increases
survival and proliferation of the stem cells (inferred from CFE and organoid size) ([8]; freshly isolated distal cells, FIG. 13): increase survival
% colony forming efficiency [8]: increase
proliferation of cells [9]: have an effect on proliferation

NC(=O)c1ccc(-c2nc(-c3ccc4c(c3)OCO4)c(-c3ccccn3)[nH]2)cc1 [SB 431542]
differentiation potential [4]: did not alter
% colony forming efficiency [8]: increases

Nc1nc(O)c2ncn(COC(CO)CO)c2n1 [gancyclovir]
loss of Scgb1a1 immunoreactive cells [10]: > 90%

From US20210147811A1, “METHODS FOR IN VITRO EXPANSION OF ADULT TISSUE STEM CELLS” (CEDARS-SINAI MEDICAL CENTER, priority 2018, published 2021)
